We go through one compound from PMC6934184, “Selective DNA-PKcs inhibition extends the therapeutic index of localized radiotherapy and chemotherapy” (The Journal of Clinical Investigation, 2019).

This test addresses T1, SIK3 (Homo sapiens, UniProt Q9Y2K2).
T1 construct: purchased Thermo Fisher Scientific (Life Technologies) SelectScreen
As to the kind of experiment: SelectScreen LanthaScreen. It is filed as binding. The conditions noted are these: 1 µM. In short, it runs like this: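 Percent values come from Thermo SelectScreen profiling of NU5455, combining activity and binding assays. CSF1R was run in Z'LYTE format at Km app ATP, and CAMK1 in Adapta format with ATP listed at 10.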

T1 sequence (Q9Y2K2 whole entry): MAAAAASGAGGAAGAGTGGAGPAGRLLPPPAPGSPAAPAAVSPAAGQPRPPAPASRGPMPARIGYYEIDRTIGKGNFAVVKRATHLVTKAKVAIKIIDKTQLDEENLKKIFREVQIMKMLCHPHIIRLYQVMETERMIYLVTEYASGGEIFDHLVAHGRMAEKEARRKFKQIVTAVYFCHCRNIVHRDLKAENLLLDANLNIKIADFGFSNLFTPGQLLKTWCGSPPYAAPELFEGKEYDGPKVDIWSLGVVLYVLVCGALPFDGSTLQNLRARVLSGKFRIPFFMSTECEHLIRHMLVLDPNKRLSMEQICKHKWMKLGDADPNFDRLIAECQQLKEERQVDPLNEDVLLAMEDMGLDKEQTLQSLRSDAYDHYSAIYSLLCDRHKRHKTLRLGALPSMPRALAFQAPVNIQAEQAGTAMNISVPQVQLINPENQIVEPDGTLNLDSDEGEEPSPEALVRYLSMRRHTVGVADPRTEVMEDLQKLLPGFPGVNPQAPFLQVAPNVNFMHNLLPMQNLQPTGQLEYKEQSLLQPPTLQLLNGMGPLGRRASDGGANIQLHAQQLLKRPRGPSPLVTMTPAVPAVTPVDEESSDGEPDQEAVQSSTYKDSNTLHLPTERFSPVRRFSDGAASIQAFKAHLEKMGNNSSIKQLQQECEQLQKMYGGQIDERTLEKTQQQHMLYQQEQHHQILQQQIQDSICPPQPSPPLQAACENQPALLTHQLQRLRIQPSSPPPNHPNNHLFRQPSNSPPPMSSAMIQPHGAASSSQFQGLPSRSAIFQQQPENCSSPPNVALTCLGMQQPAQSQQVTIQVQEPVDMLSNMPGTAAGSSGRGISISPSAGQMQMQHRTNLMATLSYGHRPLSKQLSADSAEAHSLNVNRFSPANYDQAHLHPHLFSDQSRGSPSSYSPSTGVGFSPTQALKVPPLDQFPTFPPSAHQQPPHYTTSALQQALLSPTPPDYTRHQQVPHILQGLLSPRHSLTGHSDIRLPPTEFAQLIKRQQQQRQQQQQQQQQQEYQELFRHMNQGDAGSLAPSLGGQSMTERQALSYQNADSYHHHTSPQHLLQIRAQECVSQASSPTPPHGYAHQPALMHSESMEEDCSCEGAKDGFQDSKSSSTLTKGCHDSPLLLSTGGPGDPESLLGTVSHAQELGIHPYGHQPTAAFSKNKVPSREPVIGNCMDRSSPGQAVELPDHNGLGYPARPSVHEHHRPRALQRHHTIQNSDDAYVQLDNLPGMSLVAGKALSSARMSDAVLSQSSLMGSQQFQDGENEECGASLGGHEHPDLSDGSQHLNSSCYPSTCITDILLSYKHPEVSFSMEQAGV

Take `CN(C(=O)CN1CCOCC1)c1ccc2sc3c(-c4cccc5c(=O)cc(N6CC7CCC(C6)O7)oc45)cccc3c2c1` [NU5455]: the “% displacement” value stood at 16.1%.
